Measured values taken from patent US20250382344A1, “Soluble GLP1/GIP/NPY2 Receptor Triple Agonists” (Boehringer Ingelheim International GmH, priority 2024, published 2025).
Where two headings read alike, the source gives them in different places.

Assays:
[1] = test system: Normal NMRI Mice; assay: Effect on acute food intake in normal NMRI mice; format: in vivo; details: male NMRI mice, single subcutaneous dose 100 nmol/kg, 24 hours food intake normalized to vehicle group
Method: Male NMRI mice were obtained from Janvier (Janvier Labs, France) or from Charles River (Charles River Research Models & Services Germany GmbH) at the age of 3 weeks. The animals get a microchip (Datamars, Slim Microchip T-SL) for individual identification after delivery. They were housed with 4 mice per cage under a 12/12 dark-light cycle, light off at 3 p.m. Room temperature was controlled to 21° C.+/−1° C. and humidity 60%+/−20%. Mice had ad libitum access to regular rodent chow (KLIBA Nafag 3040 or Altromin 1324, Brogaarden, Denmark) and tap water.
Latest transfer into the HM2-System of MBRose, Denmark (real-time monitoring system of food- and water intake) of the animals 5 days before study start, to allow acclimatization to experimental conditions. As the animals were uniquely identified with the microchips, each individual animal was identified by its own microchip upon entry and exit from the food channel via antennae. Randomization of the mice for each study group (n=8; age earliest 6 weeks old) was based on food intake (middle of last three days 24 h-interval) and bodyweight directly before start of the study. A vehicle treated (50 mM phosphate buffer pH 7.4 with 3.5% mannitol) group was included in each experiment. To have the same nutrition standard for each animal the food access was locked eight hours before dark phase. One hour before night, the animals were once treated subcutaneously with the test peptide. Food intake was reported hourly for a period of 24 hours.

[2] = biological target: T1, hGIPR (Homo sapiens, UniProt P48546); assay: hGIPR CreLuc assay in 0.5% and 100% plasma (CHO CRE-luciferase reporter cells); format: cell-based
T1 construct: expressed in transfected cells; host or cells: CHO CRE-luciferase reporter cells
T1 sequence (P48546 22-466): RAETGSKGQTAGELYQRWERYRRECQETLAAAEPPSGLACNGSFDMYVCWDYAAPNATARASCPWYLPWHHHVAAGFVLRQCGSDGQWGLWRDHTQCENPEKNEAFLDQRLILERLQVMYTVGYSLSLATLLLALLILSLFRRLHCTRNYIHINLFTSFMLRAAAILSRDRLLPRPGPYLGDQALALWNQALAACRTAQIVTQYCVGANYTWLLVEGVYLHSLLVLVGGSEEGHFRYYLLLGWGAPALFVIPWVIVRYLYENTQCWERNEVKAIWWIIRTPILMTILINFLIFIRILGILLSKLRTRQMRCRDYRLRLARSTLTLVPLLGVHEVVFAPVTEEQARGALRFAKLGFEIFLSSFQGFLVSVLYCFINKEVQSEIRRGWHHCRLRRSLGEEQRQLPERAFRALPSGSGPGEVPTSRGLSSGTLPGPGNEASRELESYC

[3] = Solubility in 0.1 M phosphate buffer at pH 7; format: physicochemical; details: 0.1 M phosphate buffer at pH 7, 10 mg/mL final peptide concentration, shaking 2 hours at room temperature, peptides as TFA-salts; measured sample pH 6.5-7.0
[4] = biological target: T2, hNPY2R (Homo sapiens, UniProt P49146); assay: hNPY2R CreLuc assay in 0.5% and 100% plasma (HEK-293 CRE-luciferase reporter cells); format: cell-based; details: 0.5% human plasma, HEK-293 reporter cells, read-out: hNPY2R 0.5% hP
T2 construct: expressed in transfected cells; host or cells: HEK-293 CRE-luciferase reporter cells
T2 sequence (P49146 1-381): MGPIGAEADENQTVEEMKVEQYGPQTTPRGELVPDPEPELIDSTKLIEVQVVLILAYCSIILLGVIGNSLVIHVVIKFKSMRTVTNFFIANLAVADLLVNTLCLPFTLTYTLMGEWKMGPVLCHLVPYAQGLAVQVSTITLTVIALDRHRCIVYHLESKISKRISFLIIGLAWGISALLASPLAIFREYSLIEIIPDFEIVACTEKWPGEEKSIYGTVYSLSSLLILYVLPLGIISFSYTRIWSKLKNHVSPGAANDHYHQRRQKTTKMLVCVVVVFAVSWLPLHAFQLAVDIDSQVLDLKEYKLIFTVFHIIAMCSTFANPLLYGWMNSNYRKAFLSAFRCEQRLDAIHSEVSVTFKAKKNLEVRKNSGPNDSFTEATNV

[5] = biological target: T3, hGLP1R (Homo sapiens, UniProt P43220); assay: hGLP1R CreLuc assay in 0.5% and 100% plasma (HEK-293 CRE-luciferase reporter cells); format: cell-based; details: HEK-293 reporter cells
T3 construct: expressed in transfected cells; host or cells: HEK-293 CRE-luciferase reporter cells

[6] = Mouse PK after intravenous application; format: in vivo; details: plasma, male NMRI mice, intravenous 30-60 nmol/kg, non-compartmental analysis
Method: Pharmacokinetic parameters of the peptides were determined after intravenous application to NMRI mice (Naval Medical Research Institute mice). Male NMRI mice were obtained from Janvier Laboratories (France) weighing 30 g to 40 g. Mice were housed in standard cages with a 12:12 hours light:dark cycle and standard food and water access ad libitum. Each test peptide was dissolved in 50 mM phosphate buffer (pH 7.4)/3.5% mannitol. Intravenous application of 30-60 nmol/kg was performed via the tail vein. Serial blood samples from conscious mice were collected from the saphenous vein in EDTA-containing vials at different time points up to 56 hours post-dosing. Subsequently, plasma was prepared by centrifugation for 5 minutes at approximately 5000 rpm and stored at −20° C. until quantification of the peptide plasma levels by liquid chromatography mass spectrometry (LC-MS). Individual plasma concentration-time profiles were analysed by a non-compartmental approach and the resulting pharmacokinetic parameters were calculated.

[7] = 0.5% human plasma, read-out: hGIPR 0.5% hP
[8] = 0.5% human plasma, read-out: hGLP1R 0.5% hP

T3 sequence (P43220 24-463): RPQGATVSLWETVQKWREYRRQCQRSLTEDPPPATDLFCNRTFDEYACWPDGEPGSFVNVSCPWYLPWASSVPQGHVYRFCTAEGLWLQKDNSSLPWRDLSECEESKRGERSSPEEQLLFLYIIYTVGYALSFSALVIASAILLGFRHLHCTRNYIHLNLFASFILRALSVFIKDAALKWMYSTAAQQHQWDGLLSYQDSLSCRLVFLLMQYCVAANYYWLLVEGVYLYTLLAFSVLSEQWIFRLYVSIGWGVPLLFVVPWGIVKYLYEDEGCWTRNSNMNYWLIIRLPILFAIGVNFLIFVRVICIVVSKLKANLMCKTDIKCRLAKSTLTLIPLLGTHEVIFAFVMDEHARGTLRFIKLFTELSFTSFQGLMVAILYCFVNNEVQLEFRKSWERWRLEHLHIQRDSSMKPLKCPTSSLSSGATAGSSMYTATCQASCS

| SMILES | Acute Food Intake 24 hours 100 nmol/kg [% CTL] [1] | EC50 ([2]; hGIPR 0.5% hP (nM), 0.5% human plasma) | EC50 ([2]; hGIPR 100% hP (nM), 100% human plasma) | solubility at 2 h [3] | EC50 [4] | EC50 [2, 7] | EC50 [5, 8] | MRT [6] | EC50 ([5]; 100% human plasma, read-out: hGLP1R 100% hP) |
| --- | --- | --- | --- | --- | --- | --- | --- | --- | --- |
| CC[C@H](C)[C@H](NC(=O)[C@H](CC(C)C)NC(=O)[C@H](Cc1c[nH]cn1)NC(=O)[C@H](CCCNC(=N)N)NC(=O)[C@@H](NC(=O)[C@H](Cc1ccccc1)NC(=O)[C@H](C)NC(=O)C(C)(C)NC(=O)[C@H](CCC(N)=O)NC(=O)[C@H](C)NC(=O)[C@H](CCC(N)=O)NC(=O)[C@H](CCCCN)NC(=O)[C@H](CCC(=O)O)NC(=O)[C@H](CC(C)C)NC(=O)C(C)(C)NC(=O)[C@@H](NC(=O)[C@H](CO)NC(=O)[C@H](CC(C)C)NC(=O)[C@H](CC(=O)O)NC(=O)[C@H](CO)NC(=O)[C@@H](NC(=O)[C@H](Cc1ccccc1)NC(=O)[C@@H](NC(=O)CNC(=O)[C@H](CCC(=O)O)NC(=O)C(C)(C)NC(=O)[C@@H](N)Cc1ccc(O)cc1)[C@@H](C)O)[C@@H](C)O)[C@@H](C)CC)C(C)C)C(=O)N[C@@H](CC(N)=O)C(=O)N[C@@H](CCCCNC(=O)[C@@H](N)CCCCNC(=O)CC[C@H](NC(=O)CC[C@H](NC(=O)CC[C@H](NC(=O)CC[C@H](NC(=O)CC[C@H](NC(=O)CC[C@H](NC(=O)CCCCCCCCCCCCCCCCCCC(=O)O)C(=O)O)C(=O)O)C(=O)O)C(=O)O)C(=O)O)C(=O)O)C(=O)NC(C)(C)C(=O)N[C@H](C(=O)N[C@@H](CCCNC(=N)N)C(=O)N[C@@H](CCC(N)=O)C(=O)N[C@@H](CCCNC(=N)N)C(=O)N[C@@H](Cc1ccc(O)cc1)C(N)=O)[C@@H](C)O [Compound 20, Y-Aib-E-G-T-F-T-S-D-L-S-I-Aib-L-E-K-Q-A-Q-Aib-A-F-V-R-H-L-I-N-K(1,3)-Aib-T-R-Q-R-Y-NH2.C20DA-gGlu-gGlu-gGlu-gGlu-gGlu-gGlu-eLys(1,2)] | 79 % CTL | 0.4 nM | 6.9 nM | 8500 µg/mL |  |  |  |  |  |
| CC[C@H](C)[C@H](NC(=O)[C@H](CC(C)C)NC(=O)[C@H](Cc1c[nH]cn1)NC(=O)[C@H](CCCNC(=N)N)NC(=O)[C@@H](NC(=O)[C@H](Cc1ccccc1)NC(=O)[C@H](CCC(=O)O)NC(=O)C(C)(C)NC(=O)[C@H](CCC(N)=O)NC(=O)[C@H](C)NC(=O)[C@H](CCC(N)=O)NC(=O)[C@H](CCCCN)NC(=O)[C@H](CCC(=O)O)NC(=O)[C@H](CC(C)C)NC(=O)C(C)(C)NC(=O)[C@@H](NC(=O)[C@H](CO)NC(=O)[C@H](Cc1ccc(O)cc1)NC(=O)[C@H](CC(=O)O)NC(=O)[C@H](CO)NC(=O)[C@@H](NC(=O)[C@H](Cc1ccccc1)NC(=O)[C@@H](NC(=O)CNC(=O)[C@H](CCC(=O)O)NC(=O)C(C)(C)NC(=O)[C@@H](N)Cc1ccc(O)cc1)[C@@H](C)O)[C@@H](C)O)[C@@H](C)CC)C(C)C)C(=O)N[C@@H](CC(N)=O)C(=O)N[C@@H](CCCCNC(=O)[C@@H](N)CCCCNC(=O)CC[C@H](NC(=O)CC[C@H](NC(=O)CC[C@H](NC(=O)CC[C@H](NC(=O)CC[C@H](NC(=O)CC[C@H](NC(=O)CCCCCCCCCCCCCCCCC(=O)O)C(=O)O)C(=O)O)C(=O)O)C(=O)O)C(=O)O)C(=O)O)C(=O)N[C@@H](CC(C)C)C(=O)N[C@H](C(=O)N[C@@H](CCCNC(=N)N)C(=O)N[C@@H](CCC(N)=O)C(=O)N[C@@H](CCCNC(=N)N)C(=O)N[C@@H](Cc1ccc(O)cc1)C(N)=O)[C@@H](C)O [Compound 83, Y-Aib-E-G-T-F-T-S-D-Y-S-I-Aib-L-E-K-Q-A-Q-Aib-E-F-V-R-H-L-I-N-K(1,3)-L-T-R-Q-R-Y-NH2.C18DA-gGlu-gGlu-gGlu-gGlu-gGlu-gGlu-eLys(1,2)] |  |  |  | 3800 µg/mL | 16.8 nM | 0.4 nM | 0.6 nM | 7.8 h |  |
| CC[C@H](C)[C@H](NC(=O)[C@H](CC(C)C)NC(=O)[C@H](Cc1c[nH]cn1)NC(=O)[C@H](CCCNC(=N)N)NC(=O)[C@@H](NC(=O)[C@H](Cc1ccccc1)NC(=O)[C@H](C)NC(=O)C(C)(C)NC(=O)[C@H](CCC(N)=O)NC(=O)[C@H](C)NC(=O)[C@H](CCC(N)=O)NC(=O)[C@H](CCCCN)NC(=O)[C@H](CCC(=O)O)NC(=O)[C@H](CC(C)C)NC(=O)C(C)(C)NC(=O)[C@@H](NC(=O)[C@H](CO)NC(=O)[C@H](Cc1ccc(O)cc1)NC(=O)[C@H](CC(=O)O)NC(=O)[C@H](CO)NC(=O)[C@@H](NC(=O)[C@H](Cc1ccccc1)NC(=O)[C@@H](NC(=O)CNC(=O)[C@H](CCC(=O)O)NC(=O)C(C)(C)NC(=O)[C@@H](N)Cc1ccc(O)cc1)[C@@H](C)O)[C@@H](C)O)[C@@H](C)CC)C(C)C)C(=O)N[C@@H](CC(N)=O)C(=O)N[C@@H](CCCCNC(=O)CC[C@H](NC(=O)CC[C@H](NC(=O)CC[C@H](NC(=O)CC[C@H](NC(=O)CC[C@H](NC(=O)CC[C@H](NC(=O)CCCCCCCCCCCCCCCCC(=O)O)C(=O)O)C(=O)O)C(=O)O)C(=O)O)C(=O)O)C(=O)O)C(=O)NC(C)(C)C(=O)N[C@H](C(=O)N[C@@H](CCCNC(=N)N)C(=O)N[C@@H](CCC(N)=O)C(=O)N[C@@H](CCCNC(=N)N)C(=O)N[C@@H](Cc1ccc(O)cc1)C(N)=O)[C@@H](C)O [Compound 134, Y-Aib-E-G-T-F-T-S-D-Y-S-I-Aib-L-E-K-Q-A-Q-Aib-A-F-V-R-H-L-I-N-K(1,3)-Aib-T-R-Q-R-Y-NH2.C18DA-gGlu-gGlu-gGlu-gGlu-gGlu-gGlu(1,2)] |  |  |  |  | 32.8 nM | 0.4 nM | 1 nM | 5.3 h | 4 nM |
